Here are results for one sequence from article PMC4364341, “NBD delivery improves the disease phenotype of the golden retriever model of Duchenne muscular dystrophy” (Skeletal Muscle, 2014).

Series [1] concerns utrn-/-;mdx double knock out (dko) mice. The conditions noted are these: NBD-treated dko mice; cited from earlier work. An excerpt:
Our ability to collectively achieve such a benefit in GRMD dogs, as well as in mdx diaphragm, [9, 13] and dko hearts, supports the pre-clinical efficacy of NBD. Due to interspecies differences among mice, dogs, and humans, it is difficult to say e ...

A further series has as its system wild type dogs. The conditions noted are these: dog, in vivo. As for the experimental part: (§1) For mice muscles, histopathological assessment was performed as earlier described. For canine samples, CS, lateral gastrocnemius, vastus lateralis, and diaphragm muscles were assessed at the end of the 4-month treatment period when dogs were necropsied. Muscle samples were snap frozen in isopentane cooled in liquid nitrogen, and stored at -80°C. A total of 16 dogs (3 wild type, 2 wild type + NBD, 5 untreated GRMD, and 6 GRMD + NBD) were assessed. Serial frozen sections (n = 10 per dog) from each muscle were processed. For each stain, quantitation was performed on three 10 μm sections of each muscle. To determine the degree of inflammation, cells that stained with a canine specific macrophage PM2K antibody were quantitated. Muscle damage was assessed by scoring for IgG-positive myofibers using immunofluorescence, and necrotic foci by hematoxylin and eosin (H&E) staining. Centrally located nuclei (CLN) were quantified on H&E sections to determine the degree of regeneration. Staining was quantitated on an Olympus BX51 microscope with Microsuite Five software (Olympus Soft Imaging Solutions GmbH, Center Valley, PA, USA). A composite score for all four muscles, reflecting muscle injury, inflammation, and regeneration, was determined.

The test system of another series is GRMD dogs. Briefly: Histopathologic assessment of skeletal muscles, GRMD dogs. The series is classed as in vivo, dog. On the procedure: as §1
The test system of the next series is mdx mice. The conditions noted are these: cited from earlier work. The text has this: […] […] Our ability to collectively achieve such a benefit in GRMD dogs, as well as in mdx diaphragm, [9, 13] and dko hearts, supports the pre-clinical efficacy of NBD. Due to interspecies differences among mice, dogs, and humans, it is difficult to say e ...
Another series relates to wild type and GRMD dogs. The note with it: dog, in vivo. An excerpt: Necropsies were completed on all six of the NBD-treated GRMD dogs and two of the wild type dogs. Sections of kidney, liver, spleen, lung, heart (right and left ventricle), popliteal lymph node, adrenal gland, thyroid, duodenum, large intestine, pancreas, stomach, and cerebrum were collected and fixed in 10% buffered formalin. Tissues were sent to Histo-Scientific Research Laboratories in Frederick, MD, USA, a contract research laboratory where they were processed, embedded in paraffin, sectioned, and stained with H&E. An American College of Veterinary Pathology-certified pathologist evaluated slides.

[2] abbreviates: Average rescue of 4 muscles, NBD 10 mg/kg IV 3x weekly for 4 months.
Setting [3] is: Cranial sartorius, NBD 10 mg/kg IV 3x weekly for 4 months, p = 0.14.
The mark [4] stands for this setting: Diaphragm, NBD 10 mg/kg IV 3x weekly for 4 months.
[5] abbreviates: Lateral gastroc, NBD 10 mg/kg IV 3x weekly for 4 months.
Setting [6] is: Vastus lateralis, NBD 10 mg/kg IV 3x weekly for 4 months.

Turning to “TALDWSWLQTE [NBD, NBD peptide (…) fused to an Antennapedia protein transduction domain]”, in series [1], the “Functional response, dko heart” value was “improved back to wild type”. The “Histopathological lesions in NBD treated versus untreated wild type dogs” value in the series with wild type dogs is reported as “negligible”. Besides, the “Inflammation (PM2K-positive macrophages), percent difference GRMD vs GRMD + NBD” value in the series on GRMD dogs (setting [2]) is given as 35.5%; with GRMD dogs (Cranial sartorius, NBD 10 mg/kg IV 3x weekly for 4 months, p < 0.05), 34%; with GRMD dogs (setting [4]), 37%; in the series on GRMD dogs (setting [5]) it was 40%; with GRMD dogs (setting [6]), 31%. For the same sequence, the “Necrosis (IgG-positive myofibers), percent difference GRMD vs GRMD + NBD” value in the series on GRMD dogs (setting [2]) is listed as 30.3%; in the series with GRMD dogs (setting [3]), 22%; in the series on GRMD dogs (setting [4]), 32%; in the series with GRMD dogs (setting [6]), 32%. Besides, the “Regeneration (centrally located nuclei), percent difference GRMD vs GRMD + NBD” value in the series on GRMD dogs (setting [2]) is listed as 40.8%; in the series on GRMD dogs (Cranial sartorius, NBD 10 mg/kg IV 3x weekly for 4 months, reduced, p < 0.05) it was 43%; with GRMD dogs (setting [4]), 41%; in the series with GRMD dogs (setting [5]) it was 35%; with GRMD dogs (setting [6]), 44%. Further, the “Necrosis (Foci, H&E), percent difference GRMD vs GRMD + NBD” value with GRMD dogs (setting [3]) stood at 25%; in the series on GRMD dogs (setting [4]), 37%; in the series on GRMD dogs (setting [5]), 34%. Also, in the series with GRMD dogs (GRMD + NBD vs untreated GRMD, NBD 10 mg/kg IV 3x weekly for 4 months), the “Final Histological Score of Improvement (composite of all four muscles)” value was 35.5%. The “Reduction of CS myofiber size vs untreated GRMD muscles” value in the series on GRMD dogs (GRMD + NBD, n = 6, 1800 fibers, P <0.05) came out at 46%. Further, the “Efficacy on dose reduction” value with mdx mice (IP 3x per week, concentrations of NBD reduced from 10 to 2 mg/kg) is “efficacy was lost”. The “Functional improvement, mdx diaphragm” value in the series with mdx mice (NBD-treated mdx mice) was 43%. For the same sequence, in the series on wild type and GRMD dogs, the Necropsy findings entry is “histopathological changes related to NBD”.
